For one assay, the target named is T1, xlσ1R-C179/C203 (Xenopus laevis, UniProt Q6DCU6, L179C/Y203C).
T1 construct: The gene encoding the full-length wild-type σ1R from Xenopus laevis; hemagglutinin signal peptide (N); decahistidine (His10) (N); TEV protease recognition site (N); made in house; host or cells: Pichia pastoris GS115
T1 sequence (Q6DCU6 1-221 L179C/Y203C): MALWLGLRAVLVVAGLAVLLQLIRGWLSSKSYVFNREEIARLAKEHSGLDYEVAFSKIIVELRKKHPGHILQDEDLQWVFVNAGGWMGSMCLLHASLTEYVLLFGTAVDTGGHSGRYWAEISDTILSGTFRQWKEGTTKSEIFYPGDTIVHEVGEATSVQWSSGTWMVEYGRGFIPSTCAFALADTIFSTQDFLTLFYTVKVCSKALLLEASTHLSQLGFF
The experiment in a line: ITC binding of PRE084 to xlσ1R-C179/C203 (disulfide oxidation / re-reduction). The note with it: ITC; for number of available binding sites per protomer (stoichiometry): mean ± SD.

Another assay addresses T2, xlσ1R-C203 (Xenopus laevis, UniProt Q6DCU6, Y203C).
T2 construct: The gene encoding the full-length wild-type σ1R from Xenopus laevis; hemagglutinin signal peptide (N); decahistidine (His10) (N); TEV protease recognition site (N); made in house; host or cells: Pichia pastoris GS115
T2 sequence (Q6DCU6 1-221 Y203C): T1 sequence (Q6DCU6 1-221 L179C/Y203C) with C179L
The experiment in a line: ITC binding of PRE084 to xlσ1R-C203 before/after mPEG-Mal-5K modification. The note with it: for number of available binding sites per protomer (stoichiometry): mean ± SD; for C203 stoichiometry, After modification: mPEG-Mal-5K.

The next assay has as its target T3, xlσ1R-C179 (Xenopus laevis, UniProt Q6DCU6, L179C).
T3 construct: The gene encoding the full-length wild-type σ1R from Xenopus laevis; hemagglutinin signal peptide (N); decahistidine (His10) (N); TEV protease recognition site (N); made in house; host or cells: Pichia pastoris GS115
T3 sequence (Q6DCU6 1-221 L179C): T1 sequence (Q6DCU6 1-221 L179C/Y203C) with C203Y
The experiment in a line: ITC binding of PRE084 to xlσ1R-C179 before/after mPEG-Mal-5K modification. The following applies: for C179 stoichiometry, Before modification / number of available binding sites per protomer (stoichiometry) / C179 stoichiometry, After modification: ITC; for number of available binding sites per protomer (stoichiometry): mean ± SD; for C179 stoichiometry, After modification: mPEG-Mal-5K.

[1] abbreviates: Mean of repeats (source data Fig. 4b).
The mark [2] stands for this setting: individual repeats (source data Fig. 4b).
[3] abbreviates: ITC, individual repeats (source data Fig. 4e).
The mark [4] stands for this setting: Mean of repeats (source data Fig. 4e).
The mark [5] stands for this setting: individual repeats (source data Fig. 4e).

The record followed here is publication PMC8913746, “An open-like conformation of the sigma-1 receptor reveals its ligand entry pathway” (Nature Communications, 2022).

Numbering of substitutions follows the chain as printed. “And” between values parts separate entries of the source, which are not always exact repeats. Identical values can stand only once.

With `O=C(OCCN1CCOCC1)C1(c2ccccc2)CCCCC1` [PRE084, [2-(morpholin-4-yl)ethyl] 1-phenylcyclohexane-1-carboxylate], on xlσ1R-C179/C203, the “increase of Kd after oxidation compared to before oxidation” value is reported as ~ 9 fold. Also, the “C179/C203 stoichiometry, After oxidation” value is 0.1833 on xlσ1R-C179/C203 (setting [1]); 0.179 and 0.210 and 0.161 on xlσ1R-C179/C203 (setting [2]). For the same molecule, the “C179/C203 stoichiometry, Before oxidation” value on xlσ1R-C179/C203 (setting [1]) is 0.9178; at xlσ1R-C179/C203 (setting [2]), 0.933 and 0.929 and 0.922 and 0.901 and 0.904. Further, the “C179/C203 stoichiometry, Re-reduction” value at xlσ1R-C179/C203 (setting [1]) was 0.5202; at xlσ1R-C179/C203 (setting [2]), 0.502 and 0.537 and 0.513 and 0.529. In addition, the “number of available binding sites per protomer (stoichiometry)” value on xlσ1R-C179/C203 (after oxidation (disulfide formed)) turned out to be 0.18 ± 0.02; at xlσ1R-C179/C203 (before oxidation) it was 0.92 ± 0.01; on xlσ1R-C179/C203 (oxidized sample re-reduced with β-mercaptoethanol) it was 0.52 ± 0.02; on xlσ1R-C203 (ITC, after mPEG-Mal-5K modification) it was 0.69 ± 0.04; at xlσ1R-C203 (ITC, before mPEG-Mal-5K modification) it was 0.87 ± 0.01; on xlσ1R-C179 (after mPEG-Mal-5K modification) it was 0.48 ± 0.07. Also, on xlσ1R-C179 (before mPEG-Mal-5K modification), the “number of available binding sites per protomer (stoichiometry)” value worked out at 0.85 ± 0.09. Moreover, the “C203 stoichiometry, Before modification” value at xlσ1R-C203 (setting [3]) is 0.883 and 0.859 and 0.873. Also, the “C203 stoichiometry, After modification” value at xlσ1R-C203 (ITC, Mean of repeats (source data Fig. 4e)) was 0.6895; on xlσ1R-C203 (setting [3]), 0.635 and 0.734 and 0.712 and 0.677. Moreover, the “blockade percentage (reduction of available binding sites)” value on xlσ1R-C203 (after mPEG-Mal-5K modification) is listed as ~ 21%; at xlσ1R-C179 (after mPEG-Mal-5K modification), ~ 44%. In addition, the “C179 stoichiometry, Before modification” value at xlσ1R-C179 (setting [4]) was 0.8482; on xlσ1R-C179 (setting [5]), 0.787 and 0.943 and 0.756 and 0.907. Moreover, the “C179 stoichiometry, After modification” value at xlσ1R-C179 (setting [4]) is 0.4808; at xlσ1R-C179 (setting [5]) it was 0.399 and 0.462 and 0.576 and 0.486.
